Molecules are shown by their SMILES.

Series [1] relates to mouse dorsal root ganglion (DRG) cells. Nature of the series: Calcium imaging of mammalian sensory neurons. The class given is cell-based. As to conditions: 1 µM peptide, Fluo-4 calcium imaging, neuronal and non-neuronal cells. On the procedure: Calcium imaging of a heterogenous population of mouse dorsal root ganglion (DRG) sensory neurons was performed as previously described. In brief, dorsal root ganglion (DRG) cells isolated from 4–8-week-old male C57BL/6 mice under ethics approval TRI/IMB/093/17 (University of Queensland Animal Ethics Committee, approval date 31/03/2017) were dissociated and then plated in Dulbecco’s modified Eagle’s medium (Gibco, Grand Island, NY, USA) containing 10% fetal bovine serum (FBS; Assaymatrix, Melbourne, Australia) and penicillin/streptomycin (Gibco) on a 96-well poly-D-lysine–coated culture plate (Corning, Lowell, MA, USA), and maintained overnight. Cells were loaded with Fluo-4 AM calcium indicator as per the manufacturer’s instructions (Thermo Fisher Scientific, Grand Island, NY, USA). After loading for 1 h, the dye solution was replaced with assay solution (Hanks’ balanced salt solution and 20 mM HEPES). Fluorescence corresponding to intracellular calcium ([Ca^2+]i) of typically 100–150 DRG cells per experiment was monitored in parallel using a Nikon Ti-E deconvolution inverted microscope, equipped with a Lumencor Spectra LED light source. Images were acquired at a 20× objective at one frame/s (excitation 485 nm; emission 521 nm). For each experiment, baseline fluorescence was monitored for 30 s and then a wash of assay solution was applied.

In series [2] the test system is S. pneumoniae ATCC 700677. As to conditions: taken from Dekan et al.; cited from earlier work.
In the next series the test system is HEK293 cells. As to conditions: HEK293, 24 h, resazurin; cited from earlier work. On the procedure: Table 2 Summary of bioassay data for synthetic Mp1a and analogues, including effective concentration (EC50) for activation of F11 cells, concentrations that caused 50% inhibition (IC50) for inhibition of larval development of H. contortus; median lethal dose (LD50) for lethal insecticidal effects on D. melanogaster; concentrations required to induce 50% cell death (CC50) for effects on viability o | column: Cytotoxicity (CC50 µM) ^b

In the next series the test system is S. aureus NRS 17. As to conditions: taken from Dekan et al.; cited from earlier work.

As to `CC[C@H](C)[C@H](N)C(=O)N[C@@H](CC(=O)O)C(=O)N[C@@H](Cc1c[nH]c2ccccc12)C(=O)N[C@@H](CCCCN)C(=O)N[C@@H](CCCCN)C(=O)N[C@H](C(=O)N[C@@H](CC(=O)O)C(=O)N[C@@H](Cc1c[nH]c2ccccc12)C(=O)N[C@@H](CCCCN)C(=O)N[C@@H](CCCCN)C(=O)N[C@H](C(=O)N[C@@H](CO)C(=O)N[C@@H](CCCCN)C(=O)N[C@@H](CCCCN)C(=O)N[C@H](C(=O)N[C@H]1CSSC[C@@H](C(=O)N[C@@H](CCCCN)C(=O)N[C@@H](CCCCN)C(=O)N[C@H](C(=O)N[C@@H](CC(C)C)C(=O)N[C@@H](CCCCN)C(=O)N[C@@H](CCC(N)=O)C(N)=O)C(C)C)NC(=O)[C@H](C(C)C)NC(=O)[C@H]([C@@H](C)O)NC(=O)[C@H](CCCCN)NC(=O)[C@H](C(C)C)NC(=O)[C@H](CC(C)C)NC(=O)[C@H](C(C)C)NC(=O)[C@@H](NC(=O)[C@@H](NC(=O)CNC(=O)[C@H](CCCCN)NC(=O)[C@H](CO)NC(=O)[C@@H](NC(=O)[C@H](CC(C)C)NC(=O)CNC(=O)[C@@H](NC(=O)[C@@H](N)CC(C)C)[C@@H](C)CC)C(C)C)[C@@H](C)O)CSSC[C@@H](C(=O)N[C@@H](CCCCN)C(=O)N[C@@H](Cc2ccccc2)C(=O)N[C@@H](CC(C)C)C(N)=O)NC(=O)[C@H](C)NC(=O)[C@H](CCCCN)NC(=O)[C@H](CC(C)C)NC(=O)[C@H](CCSC)NC(=O)[C@H](C(C)C)NC(=O)[C@H](CCCCN)NC1=O)[C@@H](C)O)C(C)C)C(C)C` [Analogue 1a, ∆-myrtoxin-Mp1a], in series [1], the “Effect on [Ca2+]i of DRG cells” value is “rapid increase in [Ca^2+]i in all cells”. Besides, the MIC (in series [2]; with S. aureus NRS 17) was 0.4 to 0.8 µM in each case. The “Cytotoxicity (CC50)” value in the series on HEK293 cells is 600 nM.
